According to US11566007B2, “Ras inhibitors” (Revolution Medicines, Inc., priority 2019, dated 2023):
Values joined by “and” are separate entries in the source; they are usually repeats but may differ in a detail not shown here. Equal entries are not always repeated.

biological target: KRAS G12V (Homo sapiens (Human), UniProt P01116+P62937, G12V); assay: Ras-Raf (BRAF RBD) disruption / FRET / MOA assay, KRAS G12V; type: biochemical; settings: IC50* KRAS G12V FRET data
Summary of the method: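 Compounds, top final concentration 30 μM in 10-point 3-fold series, incubated 3 hours at 25° C with nucleotide-loaded Ras, cyclophilin A and BRAF RBD.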

KRAS G12V, sequence (P01116-2 other isoform, or with tags, fused parts or gaps G12V): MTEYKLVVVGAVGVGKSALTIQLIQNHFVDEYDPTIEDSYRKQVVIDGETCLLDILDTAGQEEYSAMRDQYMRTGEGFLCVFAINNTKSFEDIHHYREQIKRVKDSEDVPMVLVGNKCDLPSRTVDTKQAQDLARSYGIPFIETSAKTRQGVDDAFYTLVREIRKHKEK
KRAS G12V, sequence (P62937 whole entry): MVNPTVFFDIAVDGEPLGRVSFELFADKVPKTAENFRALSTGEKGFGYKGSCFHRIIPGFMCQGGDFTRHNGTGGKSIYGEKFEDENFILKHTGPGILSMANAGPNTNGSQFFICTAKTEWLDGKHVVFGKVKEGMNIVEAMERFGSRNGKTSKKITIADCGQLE

Row | Compound | IC50
1 | C=CC(=O)N1CCO[C@H]2CN(C(=O)N(C)[C@H](C(=O)N[C@H]3Cc4cc(C(F)F)cc(n4)-c4ccc5c(c4)c(c(-c4cccnc4[C@H](C)OC)n5CC(F)(F)F)CC(C)(C)COC(=O)[C@@H]4CCCN(N4)C3=O)C(C)C)C[C@H]21 (atropisomer, axis not shown) [Example A540] | 1 to 10 µM

same assay, conditions: read-out: IC50* KRAS G12V FRET data

Row | Compound | IC50
2 | C=CC(=O)N1CC2(CCN2C(=O)N(C)[C@H](C(=O)N[C@H]2Cc3nc(n(C)n3)-c3ccc4c(c3)c(c(-c3cccnc3[C@H](C)OC)n4CC)CC(C)(C)COC(=O)[C@@H]3CCCN(N3)C2=O)C(C)C)C1 (atropisomer, axis not shown) [Example A612] | 0.1 to 1 µM
3 | CCn1c(-c2cccnc2[C@H](C)OC)c2c3cc(ccc31)N1CCC[C@@H](C[C@H](NC(=O)[C@H](C(C)C)N(C)C(=O)C3(F)CCN(C(=O)C#CC(C)(C)N(C)C)CC3)C(=O)N3CCC[C@H](N3)C(=O)OCC(C)(C)C2)C1 (atropisomer, axis not shown) [Example A615] | > 10 µM
4 | C=C(F)C(=O)N1CC2(CCN(C(=O)N(C)[C@H](C(=O)N[C@H]3Cc4nc(cs4)-c4ccc5c(c4)c(c(-c4cccnc4[C@H](C)OC)n5CC)CC(C)(C)COC(=O)[C@@H]4CCCN(N4)C3=O)C(C)C)CC2)C1 (atropisomer, axis not shown) [Example A682] | 0.1 to 1 µM
5 | C=CC(=O)Nc1ccc(C(=O)N(C)[C@H](C(=O)N[C@H]2Cc3cc(O)cc(c3)-c3ccc4c(c3)c(c(-c3cccnc3[C@H](C)OC)n4CC)CC(C)(C)COC(=O)[C@@H]3CCCN(N3)C2=O)C(C)C)nc1 (atropisomer, axis not shown) [Example A252] | 0.1 to 1 µM
6 | C=CC(=O)N1CC[C@@]2(CCN(C(=O)N(C)[C@H](C(=O)N[C@H]3Cc4nc(cs4)-c4ccc5c(c4)c(c(-c4cccnc4[C@H](C)OC)n5CC)CC(C)(C)COC(=O)[C@@H]4CCCN(N4)C3=O)C(C)C)C2)C1 (atropisomer, axis not shown) [Example A367] | 0.1 to 1 µM
7 | C=CS(=O)(=O)N1CC2(CCN([C@H](C(=O)N[C@H]3Cc4cc(O)cc(c4)-c4ccc5c(c4)c(c(-c4cccnc4[C@H](C)OC)n5CC)CC(C)(C)COC(=O)[C@@H]4CCCN(N4)C3=O)C(C)C)C2=O)C1 (atropisomer, axis not shown) [Example A297] | 0.1 to 1 µM
8 | C=CC(=O)N1CCO[C@H]2CN(C(=O)N(C)[C@H](C(=O)N[C@H]3Cc4nc(cs4)-c4ccc5c(c4)c(c(-c4cccnc4[C@H](C)OC)n5CC)CC(C)(C)COC(=O)[C@@H]4CCCN(N4)C3=O)C(C)C)C[C@H]21 (atropisomer, axis not shown) [Example A706] | 1 to 10 µM
9 | C=CC(=O)N1CC[C@H](C(=O)N(C)[C@H](C(=O)N[C@H]2Cc3cc(CF)cc(c3)-c3ccc4c(c3)c(c(-c3cccnc3[C@H](C)OC)n4CC)CC(C)(C)COC(=O)[C@@H]3CCCN(N3)C2=O)C(C)C)C1 (atropisomer, axis not shown) [Example A503] | 1 to 10 µM
10 | C=CC(=O)N1C[C@@H](C)N(C(=O)N(C)[C@H](C(=O)N[C@H]2Cc3nc(cs3)-c3ccc4c(c3)c(c(-c3cccnc3[C@H](C)OC)n4CC)CC(C)(C)COC(=O)[C@@H]3CCCN(N3)C2=O)C(C)C)[C@H](C)C1 (atropisomer, axis not shown) [Example A388] | 0.01 to 0.1 µM
11 | C=CC(=O)N1CC[C@H](C(=O)N(C)[C@H](C(=O)N[C@H]2Cc3nc(cs3)-c3ccc4c(c3)c(c(-c3cccnc3[C@H](C)OC)n4CC(F)(F)F)CC(C)(C)COC(=O)[C@@H]3CCCN(N3)C2=O)C(C)C)C1 (atropisomer, axis not shown) [Example A502] | 1 to 10 µM
12 | CCn1c(-c2cccnc2[C@H](C)OC)c2c3cc(ccc31)-c1cnc(o1)C[C@H](NC(=O)[C@H](C(C)C)N(C)C(=O)[C@H]1CCN(C(=O)C#CC(C)(C)N(C)C)C1)C(=O)N1CCC[C@H](N1)C(=O)OCC(C)(C)C2 (atropisomer, axis not shown) [Example A692, (3S)-1-(4-(dimethylamino)-4-methylpent-2-ynoyl)-N-((2S)-1-(((6^3S,4S)-1^1-ethyl-1^2-(2-((S)-1-methoxyethyl)pyridin-3-yl)-10,10-dimethyl-5,7-dioxo-6^1,6^2,6^3,6^4,6^5,6^6-hexahydro-1^1H-8-oxa-2(5,2)-oxazola-1(5,3)-indola-6(1,3)-pyridazinacycloundecaphane-4-yl)amino)-3-methyl-1-oxobutan-2-yl)-N-methylpyrrolidine-3-carboxamide] | 1 to 10 µM
13 | C=CC(=O)N1CC[C@H](C(=O)N(C)[C@H](C(=O)N[C@H]2Cc3cc(O)cc(c3)-c3ccc4c(c3)c(c(-c3cncc5c3[C@@H](OC)CC5)n4CC)CC(C)(C)COC(=O)[C@@H]3CCCN(N3)C2=O)C(C)C)C1 [Example A275] | 0.01 to 0.1 µM
14 | C=CC(=O)N1CC[C@H](C(=O)N(C)[C@H](C(=O)N[C@H]2Cc3cccc(c3)-c3ccc4c(c3)c(c(-c3cc(CN(C)C)cnc3[C@H](C)OC)n4CC)CC(C)(C)COC(=O)[C@@H]3CCCN(N3)C2=O)C(C)C)C1 (atropisomer, axis not shown) [Example A522] | 1 to 10 µM
15 | CCn1c(-c2cccnc2[C@H](C)OC)c2c3cc(ccc31)-c1cccc(c1)C[C@H](NC(=O)[C@H](C(C)C)N1CO[C@@]3(CCN(C(=O)C#CC(C)(C)N4CCC4)C3)C1=O)C(=O)N1CCC[C@H](N1)C(=O)OCC(C)(C)C2 (atropisomer, axis not shown) [Example A733] | 1 to 10 µM
16 | C=CC(=O)N1CCN(C(=O)N(C)[C@H](C(=O)N[C@H]2Cc3nc(cs3)-c3ccc4c(c3)c(c(-c3cccnc3[C@H](C)OC)n4CC(F)(F)F)CC(C)(C)COC(=O)[C@@H]3CCCN(N3)C2=O)C(C)C)CC12CC2 (atropisomer, axis not shown) [Example A679] | 0.01 to 0.1 µM
17 | CCn1c(-c2cccnc2[C@H](C)OC)c2c3cc(ccc31)-c1csc(n1)C[C@H](NC(=O)[C@H](C(C)C)N(C)C(=O)N1CCN(C(=O)/C=C/CN3CCOCC3)C3(CC3)C1)C(=O)N1CCC[C@H](N1)C(=O)OCC(C)(C)C2 (atropisomer, axis not shown) [Example A665] | 0.01 to 0.1 µM
18 | C=CC(=O)N1CCO[C@@]2(CCN(C(=O)N(C)[C@H](C(=O)N[C@H]3Cc4nc(cs4)-c4ccc5c(c4)c(c(-c4cccnc4[C@H](C)OC)n5CC(F)(F)F)CC(C)(C)COC(=O)[C@@H]4CCCN(N4)C3=O)C(C)C)C2)C1 (atropisomer, axis not shown) [Example A594] | 0.1 to 1 µM
19 | C=CC(=O)N1CCO[C@H]2CN(C(=O)N(C)[C@H](C(=O)N[C@H]3Cc4cccc(c4)-c4ccc5c(c4)c(c(-c4cccnc4[C@H](C)OC)n5CC)CC(C)(C)COC(=O)[C@@H]4CCCN(N4)C3=O)C(C)C)C[C@H]21 (atropisomer, axis not shown) [Example A610] | 1 to 10 µM
20 | CCn1c(-c2cccnc2[C@H](C)OC)c2c3cc(ccc31)-c1csc(n1)C[C@H](NC(=O)[C@H](C(C)C)N(C)C(=O)N1C[C@H]3CN(C(=O)C#CC(C)(C)N(C)C)CC[C@H]31)C(=O)N1CCC[C@H](N1)C(=O)OCC(C)(C)C2 (atropisomer, axis not shown) [Example A624] | 0.1 to 1 µM
21 | CCn1c(-c2cccnc2[C@H](C)OC)c2c3cc(ccc31)-c1cccc(c1)C[C@H](NC(=O)C(COC1CN(C(=O)C#CC(C)(C)N(C)C)C1)C(C)C)C(=O)N1CCC[C@H](N1)C(=O)OCC(C)(C)C2 (stereo partly drawn) [Example A316, (2R)-2-(((1-(4-(dimethylamino)-4-methylpent-2-ynoyl)azetidin-3-yl)oxy)methyl)-N-((6^3S,4S)-1^1-ethyl-1^2-(2-((S)-1-methoxyethyl)pyridin-3-yl)-10,10-dimethyl-5,7-dioxo-6^1,6^2,6^3,6^4,6^5,6^6-hexahydro-1^1H-8-oxa-1(5,3)-indola-6(1,3)-pyridazina-2(1,3)-benzenacycloundecaphane-4-yl)-3-methylbutanamide] | 1 µM to 10 µM and > 10 µM (2×)
22 | C=CC(=O)N1CCOC2(CCN(C(=O)N(C)[C@H](C(=O)N[C@H]3Cc4nc(cs4)-c4ccc5c(c4)c(c(-c4cccnc4[C@H](C)OC)n5CC)CC(C)(C)COC(=O)[C@@H]4CCCN(N4)C3=O)C(C)C)CC2)C1 (atropisomer, axis not shown) [Example A695] | 0.1 to 1 µM
23 | C=C(C)C(=O)N1CC2(CCN(C(=O)N(C)[C@H](C(=O)N[C@H]3Cc4nc(cs4)-c4ccc5c(c4)c(c(-c4cccnc4[C@H](C)OC)n5CC)CC(C)(C)COC(=O)[C@@H]4CCCN(N4)C3=O)C(C)C)CC2)C1 (atropisomer, axis not shown) [Example A651] | 0.1 to 1 µM
24 | CCn1c(-c2cccnc2[C@H](C)OC)c2c3cc(ccc31)-c1cccc(c1)C[C@H](NC(=O)[C@@H](COC1CN(C(=O)C#CC(C)(C)N(C)CCO)C1)C(C)C)C(=O)N1CCC[C@H](N1)C(=O)OCC(C)(C)C2 (atropisomer, axis not shown) [Example A657] | > 10 µM
25 | C=CC(=O)N(C)C[C@H]1CCN(C(=O)N(C)[C@H](C(=O)N[C@H]2Cc3nc(cs3)-c3ccc4c(c3)c(c(-c3cccnc3[C@H](C)OC)n4CC)CC(C)(C)COC(=O)[C@@H]3CCCN(N3)C2=O)C(C)C)C1 (atropisomer, axis not shown) [Example A653] | 0.1 to 1 µM
26 | C=CC(=O)N1CCO[C@@H]2CN(C(=O)N(C)[C@H](C(=O)N[C@H]3Cc4nc(cs4)-c4ccc5c(c4)c(c(-c4cccnc4[C@H](C)OC)n5CC)CC(C)(C)COC(=O)[C@@H]4CCCN(N4)C3=O)C(C)C)C[C@H]21 (atropisomer, axis not shown) [Example A543] | 0.1 to 1 µM
27 | CCn1c(-c2cccnc2[C@H](C)OC)c2c3cc(ccc31)-c1csc(n1)C[C@H](NC(=O)[C@H](F)COC1CN(C(=O)C#CC(C)(C)N(C)C)C1)C(=O)N1CCC[C@H](N1)C(=O)OCC(C)(C)C2 (atropisomer, axis not shown) [Example A627] | > 10 µM
28 | C=CC(=O)N1CC2(CCN2C(=O)N(C)[C@H](C(=O)N[C@H]2Cc3cccc(c3)-c3ccc4c(c3)c(c(-c3cccnc3[C@H](C)OC)n4CC)CC(C)(C)COC(=O)[C@@H]3CCCN(N3)C2=O)C(C)C)C1 (atropisomer, axis not shown) [Example A684] | 0.1 to 1 µM
29 | C=CC(=O)N1CC[C@H](C(=O)N(C)[C@H](C(=O)N[C@H]2Cc3cc(F)cc(c3)-c3ccc4c(c3)c(c(-c3cccnc3[C@H](C)OC)n4CC)CC(C)(C)COC(=O)[C@@H]3CCCN(N3)C2=O)C(C)C)C1 (atropisomer, axis not shown) [Example A342] | 1 to 10 µM
